Experimental data as given in patent US20120277269A1 (priority 2008, published 2012).
Read-outs that look alike come from different tables or passages of the source.

Legend:
[1] = system: AF patients; conditions: BAFTA; mean follow-up 2.7 years; cited from earlier work
[2] = system: AF patients; conditions: ACTIVE W; mean follow-up 1.3 years; cited from earlier work
[3] = system: AF patients; conditions: SPORTIF III; Warfarin vs. Ximelagatran; mean follow-up 1.45 years; cited from earlier work
[4] = system: patients with atrial fibrillation at risk of stroke
Excerpt: Median follow-up was 2.0 years and the primary outcome was stroke or systemic embolism.
Patients were recruited from 951 clinical centers in 44 countries. In brief, patients were eligible if they had atrial fibrillation documented on electrocardiogram at screening or within 6 months; and at least one of the following: prior stroke or transient ischemic attack; left ventricular ejection fraction less than 40%; New York Heart Association heart failure symptoms of Class 2 or greater within 6 months; age at least 75 years; or age at least 65 years with diabetes mellitus, hypertension or coronary artery disease.
The time in therapeutic range was calculated by the method of Rosendaal (Rosendaal F R, et al., A method to determine the optimal intensity of oral anticoagulant therapy, Thromb Haemost, 1993, 69:236-239), excluding INRs from the first week and after discontinuations. […] Concomitant use of aspirin (less than 100 mg/day) or other antiplatelet agents was allowed.
Liver function testing was performed monthly during the first year of follow-up.
The primary study outcome was stroke or systemic embolism. The primary safety outcome was major hemorrhage. Secondary outcomes were stroke, systemic embolism and death. Other outcomes were myocardial infarction, pulmonary embolism, transient ischemic attacks, and hospitalizations. The primary net benefit-risk outcome was the composite of stroke, systemic embolism, pulmonary embolism, myocardial infarction, death or major hemorrhage. Stroke was defined as sudden onset of focal neurological deficit consistent with the territory of a major cerebral artery and categorized as ischemic, hemorrhagic or unspecified. Hemorrhagic transformation of ischemic stroke was not considered as hemorrhagic stroke. Intracranial hemorrhage included hemorrhagic stroke and sub-dural or sub-arachnoid hemorrhage. Systemic embolism was an acute vascular occlusion of an extremity or organ documented by imaging, surgery or autopsy. Major bleeding was defined as a reduction in hemoglobin level of at least […] or transfusion of at least 2 units of blood or symptomatic bleeding in a critical area or organ. Life-threatening bleeding was a subset of major bleeding that included fatal bleeding, symptomatic intracranial bleeding, bleeding with hemoglobin decrease of more than […] or requiring transfusion of more than 4 units of blood or requiring inotropic agents or necessitating surgery. All other bleeding was considered minor.
All primary and secondary outcome events were blindly and doubly adjudicated. An international team of adjudicators reviewed documents in local languages after blinding; or documents were translated by a independent group and blinded centrally. All transient ischemic attacks were reviewed to ensure that strokes had not been missed. To detect possible unreported events, symptom questionnaires were regularly administered to patients, and adverse events and hospitalization reports were scrutinized for unreported primary or secondary outcomes.
If maximum of the two p-values was greater than 0.025, the minimum of the two p-values must be less than 0.0125, one-sided, to claim statistical significance. All analyses were based on intention-to-treat.

[5] = system: AF patients; conditions: SPORTIF V; Warfarin vs. Ximelagatran; mean follow-up 1.66 years; cited from earlier work

CC(=O)CC(c1ccccc1)c1c(O)c2ccccc2oc1=O (racemic) [Warfarin, 3-(α-acetonylbenzyl)-4-hydroxycoumarin]
Myocardial Infarction [1]: 1.1% (warfarin)
Myocardial Infarction [2]: 0.6% (warfarin)
Myocardial Infarction [3]: 0.6% (warfarin)
ALT or AST > 3xULN with concurrent bilirubin > 2xULN ([4]; Warfarin): (0.4) %
Adverse Event: Arthralgia ([4]; Warfarin): (5.5) %
Adverse Event: Atrial fibrillation ([4]; Warfarin): (5.4) %
Adverse Event: Back pain ([4]; Warfarin): (5.5) %
Adverse Event: Chest pain ([4]; Warfarin): (5.7) %
Adverse Event: Cough ([4]; Warfarin): (5.8) %
Adverse Event: Diarrhea ([4]; Warfarin): (5.5) %
Adverse Event: Dizziness ([4]; Warfarin): (9.3) %
Adverse Event: Dyspepsia ([4]; Warfarin): (1.4) %
Adverse Event: Dyspnoea ([4]; Warfarin): (9.2) %
Adverse Event: Fatigue ([4]; Warfarin): (5.9) %
Adverse Event: Nasopharyngitis ([4]; Warfarin): (5.5) %
Adverse Event: Peripheral edema ([4]; Warfarin): (7.6) %
Adverse Event: Upper respiratory tract infection ([4]; Warfarin): (5.0) %
Adverse Event: Urinary tract infection ([4]; Warfarin): (5.3) %
Life threatening major bleeding, Rate ([4]; Warfarin): 1.80 /100 Person Years
Liver Function Test Abnormalities: ALT or AST > 3xULN ([4]; Warfarin): (2.1) %
Pulmonary embolism, Rate ([4]; Warfarin): 0.09 /100 Person Years
Reason for discontinuation: Gastrointestinal bleeding ([4]; Warfarin): (0.9) %
Reason for discontinuation: Gastrointestinal disorders (including pain, vomiting and diarrhea) ([4]; Warfarin): (0.8) %
Reason for discontinuation: SAE ([4]; Warfarin): (1.6) %
hepatobiliary disorders (AE) ([4]; Warfarin): (2.2) %
hepatobiliary disorders (SAE) ([4]; Warfarin): (0.4) %
Rate of primary outcome, stroke or systemic embolism ([4]; warfarin, median follow-up 2.0 years): 1.70 % per year
Myocardial Infarction [5]: 1.4% (warfarin)
